Experimental data: patent publication US11059780B2, “Substituted pyrrolidine compound and use thereof” (Takeda Pharmaceutical Company Limited, priority 2017, dated 2021)

Molecular target: T1, human orexin type 2 receptor (hOX2R) (Homo sapiens, UniProt O43614)
T1 construct: expressed in transfected cells
T1 sequence (O43614 1-444): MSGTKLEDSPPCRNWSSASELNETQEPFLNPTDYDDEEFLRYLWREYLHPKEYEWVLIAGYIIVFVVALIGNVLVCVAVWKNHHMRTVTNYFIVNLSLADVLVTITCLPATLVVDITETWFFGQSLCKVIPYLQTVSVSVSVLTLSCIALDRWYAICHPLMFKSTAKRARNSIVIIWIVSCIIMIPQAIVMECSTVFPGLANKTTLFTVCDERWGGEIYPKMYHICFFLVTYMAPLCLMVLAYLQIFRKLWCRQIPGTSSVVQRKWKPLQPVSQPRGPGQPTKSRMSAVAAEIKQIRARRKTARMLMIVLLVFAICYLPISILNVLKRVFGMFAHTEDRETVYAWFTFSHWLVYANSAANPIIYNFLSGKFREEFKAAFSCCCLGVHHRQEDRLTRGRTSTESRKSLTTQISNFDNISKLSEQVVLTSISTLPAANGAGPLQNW
Assay: Measurement of orexin type 2 receptor agonist activity (Fluo-4 calcium fluorescence, CHO cells forcibly expressing human OX2 receptor)
Assay type: cell-based
Conditions: test compound 3 μM, DMSO = 0%, orexin A (human) 10 nM = 100%
From the text: Experimental Example 1: Obtainment of Cell Stably Expressing Human Orexin Type 2 Receptor (hOX2R)
To obtain a cell clone stably expressing human orexin type 2 receptor, human orexin type 2 receptor cDNA was inserted into pcDNA3.1(+) plasmid vector (Invitrogen), and a plasmid DNA for expression of human orexin type 2 receptor (pcDNA3.1(+)/hOX2R) was cloned. The plasmid DNA was introduced into CHO-dhfr cell by an electroporation method, and human orexin type 2 receptor expressing clone cells were obtained by limiting dilution method by using G418 drug resistance as a selection marker.
Experimental Example 2: Measurement of Orexin Type 2 Receptor Agonist Activity
CHO cells forcibly expressing human OX2 receptor were seeded in each well of 384 well black transparent bottom plate (BD Falcon) at 7,500 cells/well, and cultured for one day in a 5% CO2 incubator at 37° C. After removal of the medium in the cell plate, assay buffer A containing a calcium indicator (HBSS (Life Technologies), 20 mM HEPES (Life Technologies), 0.1% BSA (Wako Pure Chemical Industries, Ltd.), 2.5 μg/mL Fluo-4 AM (DOJINDO Chemical), 0.08% Pluronic F127 (DOJINDO Chemical), 1.25 mM probenecid (DOJINDO Chemical)) was added at 30 μL/well. The plate was stood for 30 min in a 5% CO2 incubator at 37° C., and further stood at room temperature for 30 min. A test compound prepared by diluting with assay buffer B (HBSS, 20 mM HEPES, 0.1% BSA) was added at 10 μL/well, and the fluorescence value was measured by FDSSpCELL (Hamamatsu Photonics K.K.) every one sec for 1 min, and thereafter every two sec for 1 min 40 sec. The activity (%) of the test compound was calculated assuming that variation in the fluorescence value when DMSO was added instead of the test compound was 0% […], and variation in the fluorescence value when orexin A (human) (PEPTIDE INSTITUTE, INC.) was added at the final concentration of 10 nM was 100% […]. The activity of each compound at the concentration of 3 μM was shown below.

Compound	OX2R agonist activity (3 μM, %)
CO[C@@H]1CN(C(=O)c2cc(C)ccc2C)C[C@H]1Oc1cccc(CS(=O)(=O)N2CCCC2c2cnccn2)c1 (relative stereo) [Example 39, trans-(2,5-dimethylphenyl)(3-methoxy-4-(3-(((2-(pyrazin-2-yl)pyrrolidin-1-yl)sulfonyl)methyl)phenoxy)pyrrolidin-1-yl)methanone]	76%
CO[C@@H]1CN(C(=O)c2cc(C)ccc2C)C[C@H]1Oc1cccc(NS(=O)(=O)N2CCC23COC3)c1 (relative stereo) [Example 63, trans-N-(3-((1-(2,5-dimethylbenzoyl)-4-methoxypyrrolidin-3-yl)oxy)phenyl)-6-oxa-1-azaspiro[3.3]heptane-1-sulfonamide]	77%
CO[C@@H]1CN(C(=O)c2cc(C)ccc2C)C[C@H]1Oc1cc(F)cc(CS(=O)(=O)N2CCCC2c2ccccn2)c1 (relative stereo) [Example 91, trans-(2,5-dimethylphenyl)(3-(3-fluoro-5-(((2-(pyridin-2-yl)pyrrolidin-1-yl)sulfonyl)methyl)phenoxy)-4-methoxypyrrolidin-1-yl)methanone]	70%
CO[C@@H]1CN(C(=O)c2c(C)cccc2C)C[C@H]1Oc1cccc(NS(=O)(=O)N2CC3CC3C2)c1 (stereo partly drawn) [Example 120, N-(3-(((3R,4R)-1-(2,6-dimethylbenzoyl)-4-methoxypyrrolidin-3-yl)oxy)phenyl)-3-azabicyclo[3.1.0]hexane-3-sulfonamide]	107%
COC1CN(C(=O)c2cc(C)ccc2C)CC1Oc1cc(NS(=O)(=O)N2C[C@@H]3C[C@H]3C2)cc(C)n1 (relative stereo) [Example 117, trans-N-(2-((1-(2,5-dimethylbenzoyl)-4-methoxypyrrolidin-3-yl)oxy)-6-methylpyridin-4-yl)-3-azabicyclo[3.1.0]hexane-3-sulfonamide]	93%
COC1CN(C(=O)c2cc(C)ccc2C)CC1Oc1cccc(NS(=O)(=O)N2C[C@@H]3CC[C@@H](C2)O3)c1 (relative stereo) [Example 80, trans-N-(3-((1-(2,5-dimethylbenzoyl)-4-methoxypyrrolidin-3-yl)oxy)phenyl)-8-oxa-3-azabicyclo[3.2.1]octane-3-sulfonamide]	94%
CCc1ccc(C)c(C(=O)N2C[C@@H](OC)[C@H](Oc3cccc(CS(=O)(=O)N(C)C4CCOCC4)c3)C2)c1OC (relative stereo) [Example 164, trans-1-(3-((1-(3-ethyl-2-methoxy-6-methylbenzoyl)-4-methoxypyrrolidin-3-yl)oxy)phenyl)-N-methyl-N-(tetrahydro-2H-pyran-4-yl)methanesulfonamide]	86%
CCc1cccc(C)c1C(=O)N1C[C@@H](OC)[C@H](Oc2cccc(CS(=O)(=O)N(C)C3CCOCC3)c2)C1 [Example 146, 1-(3-(((3R,4R)-1-(2-ethyl-6-methylbenzoyl)-4-methoxypyrrolidin-3-yl)oxy)phenyl)-N-methyl-N-(tetrahydro-2H-pyran-4-yl)methanesulfonamide]	105%
CO[C@@H]1CN(C(=O)c2cc(C)ccc2C)C[C@H]1Oc1cccc(CS(=O)(=O)N(C)c2ccncc2)c1 (relative stereo) [Example 7, trans-1-(3-((1-(2,5-dimethylbenzoyl)-4-methoxypyrrolidin-3-yl)oxy)phenyl)-N-methyl-N-(pyridin-4-yl)methanesulfonamide]	32%

More lines, now with the values ahead:

OX2R agonist activity (3 μM, %)	Compound
77%	CO[C@@H]1CN(C(=O)c2cc(C)ccc2C)C[C@H]1Oc1cccc(CS(=O)(=O)N2CCCC2c2ccc(C)nc2)c1 (relative stereo) [Example 112, trans-(2,5-dimethylphenyl)(3-methoxy-4-(3-(((2-(6-methylpyridin-3-yl)pyrrolidin-1-yl)sulfonyl)methyl)phenoxy)pyrrolidin-1-yl)methanone]
80%	CO[C@@H]1CN(C(=O)c2cc(C)ccc2C)C[C@H]1Oc1cccc(CS(=O)(=O)N2CCCC2c2ccccn2)c1 (relative stereo) [Example 15, trans-(2,5-dimethylphenyl)(3-methoxy-4-(3-(((2-(pyridin-2-yl)pyrrolidin-1-yl)sulfonyl)methyl)phenoxy)pyrrolidin-1-yl)methanone]
87%	CO[C@@H]1CN(C(=O)c2cc(C)ccc2C)C[C@H]1Oc1cccc(CS(=O)(=O)N2CCC23COC3)c1 (relative stereo) [Example 34, trans-(2,5-dimethylphenyl)(3-methoxy-4-(3-((6-oxa-1-azaspiro[3.3]hept-1-ylsulfonyl)methyl)phenoxy)pyrrolidin-1-yl)methanone]
68%	CO[C@@H]1CN(C(=O)c2cc(C)ccc2C)C[C@H]1Oc1cccc(NS(=O)(=O)N2CCC23CCOC3)c1 (stereo partly drawn) [Example 30, N-(3-(((3R,4R)-1-(2,5-dimethylbenzoyl)-4-methoxypyrrolidin-3-yl)oxy)phenyl)-6-oxa-1-azaspiro[3.4]octane-1-sulfonamide]
45%	CO[C@@H]1CN(C(=O)C(F)(F)c2ccccc2)C[C@H]1Oc1cccc(CS(=O)(=O)N(C)C2CCOCC2)c1 (relative stereo) [Example 145, trans-1-(3-((1-(difluoro(phenyl)acetyl)-4-methoxypyrrolidin-3-yl)oxy)phenyl)-N-methyl-N-(tetrahydro-2H-pyran-4-yl)methanesulfonamide]
60%	CO[C@@H]1CN(C(=O)c2cc(C)ccc2C)C[C@H]1Oc1cccc(NS(=O)(=O)N2CCCC2C)c1 (relative stereo) [Example 23, trans-N-(3-((1-(2,5-dimethylbenzoyl)-4-methoxypyrrolidin-3-yl)oxy)phenyl)-2-methylpyrrolidine-1-sulfonamide]
67%	CO[C@@H]1CN(C(=O)c2cc(C)ccc2C)C[C@H]1Oc1ccc(F)c(CS(=O)(=O)N2CCCC2c2ccccn2)c1 (relative stereo) [Example 87, trans-(2,5-dimethylphenyl)(3-(4-fluoro-3-(((2-(pyridin-2-yl)pyrrolidin-1-yl)sulfonyl)methyl)phenoxy)-4-methoxypyrrolidin-1-yl)methanone]
97%	CO[C@@H]1CN(C(=O)c2c(C)cccc2C2CC2)C[C@H]1Oc1cccc(OS(=O)(=O)N(C)C2CCOCC2)c1 (relative stereo) [Example 163, trans-3-((1-(2-cyclopropyl-6-methylbenzoyl)-4-methoxypyrrolidin-3-yl)oxy)phenyl methyl(tetrahydro-2H-pyran-4-yl)sulfamate]
87%	CO[C@@H]1CN(C(=O)c2cc(C)ccc2C)C[C@H]1Oc1cccc(NS(=O)(=O)N(C)Cc2cccnc2)c1 (relative stereo) [Example 61, trans-N′-(3-((1-(2,5-dimethylbenzoyl)-4-methoxypyrrolidin-3-yl)oxy)phenyl)-N-methyl-N-(pyridin-3-ylmethyl)sulfuric diamide]
65%	CO[C@@H]1CN(C(=O)c2cc(C)ccc2C)C[C@H]1Oc1cccc(NS(=O)(=O)N2CCCC2)c1 (relative stereo) [Example 22, trans-N-(3-((1-(2,5-dimethylbenzoyl)-4-methoxypyrrolidin-3-yl)oxy)phenyl)pyrrolidine-1-sulfonamide]
72%	COc1ccccc1C1CCCN1S(=O)(=O)Nc1cccc(O[C@@H]2CN(C(=O)c3cc(C)ccc3C)C[C@H]2OC)c1 (relative stereo) [Example 66, trans-N-(3-((1-(2,5-dimethylbenzoyl)-4-methoxypyrrolidin-3-yl)oxy)phenyl)-2-(2-methoxyphenyl)pyrrolidine-1-sulfonamide]
110%	CCc1cccc(C)c1C(=O)N1C[C@@H](OC)[C@H](Oc2cccc(CS(=O)(=O)N(C)[C@@H]3C[C@H]4CC[C@@H](C3)O4)c2)C1 [Example 149, 1-(3-(((3R,4R)-1-(2-ethyl-6-methylbenzoyl)-4-methoxypyrrolidin-3-yl)oxy)phenyl)-N-methyl-N-((3-exo)-8-oxabicyclo[3.2.1]oct-3-yl)methanesulfonamide]
